ChEMBL document CHEMBL1150306, “2-Trifluoroacetylthiophenes, a novel series of potent and selective class II histone deacetylase inhibitors” (Bioorg Med Chem Lett, 2008)

Columns and labels:
Histone deacetylase 3 [1] = target: T1, Histone deacetylase 3 (Homo sapiens, UniProt O15379); assay: Inhibition of HDAC3
Histone deacetylase 4 [2] = target: Histone deacetylase 4 (Homo sapiens, UniProt P56524, H976Y); assay: Inhibition of HDAC4GOF mutant expressed in Escherichia coli
Histone deacetylase 4 [3] = target: Histone deacetylase 4 (Homo sapiens, UniProt P56524); assay: Inhibition of wild type HDAC4 expressed in Escherichia coli
[4] = target: T2, Protein deacetylase HDAC6 (Homo sapiens) (UniProt Q9UBN7); assay: Inhibition of HDAC6 at 9 nM
T2 sequence (whole entry): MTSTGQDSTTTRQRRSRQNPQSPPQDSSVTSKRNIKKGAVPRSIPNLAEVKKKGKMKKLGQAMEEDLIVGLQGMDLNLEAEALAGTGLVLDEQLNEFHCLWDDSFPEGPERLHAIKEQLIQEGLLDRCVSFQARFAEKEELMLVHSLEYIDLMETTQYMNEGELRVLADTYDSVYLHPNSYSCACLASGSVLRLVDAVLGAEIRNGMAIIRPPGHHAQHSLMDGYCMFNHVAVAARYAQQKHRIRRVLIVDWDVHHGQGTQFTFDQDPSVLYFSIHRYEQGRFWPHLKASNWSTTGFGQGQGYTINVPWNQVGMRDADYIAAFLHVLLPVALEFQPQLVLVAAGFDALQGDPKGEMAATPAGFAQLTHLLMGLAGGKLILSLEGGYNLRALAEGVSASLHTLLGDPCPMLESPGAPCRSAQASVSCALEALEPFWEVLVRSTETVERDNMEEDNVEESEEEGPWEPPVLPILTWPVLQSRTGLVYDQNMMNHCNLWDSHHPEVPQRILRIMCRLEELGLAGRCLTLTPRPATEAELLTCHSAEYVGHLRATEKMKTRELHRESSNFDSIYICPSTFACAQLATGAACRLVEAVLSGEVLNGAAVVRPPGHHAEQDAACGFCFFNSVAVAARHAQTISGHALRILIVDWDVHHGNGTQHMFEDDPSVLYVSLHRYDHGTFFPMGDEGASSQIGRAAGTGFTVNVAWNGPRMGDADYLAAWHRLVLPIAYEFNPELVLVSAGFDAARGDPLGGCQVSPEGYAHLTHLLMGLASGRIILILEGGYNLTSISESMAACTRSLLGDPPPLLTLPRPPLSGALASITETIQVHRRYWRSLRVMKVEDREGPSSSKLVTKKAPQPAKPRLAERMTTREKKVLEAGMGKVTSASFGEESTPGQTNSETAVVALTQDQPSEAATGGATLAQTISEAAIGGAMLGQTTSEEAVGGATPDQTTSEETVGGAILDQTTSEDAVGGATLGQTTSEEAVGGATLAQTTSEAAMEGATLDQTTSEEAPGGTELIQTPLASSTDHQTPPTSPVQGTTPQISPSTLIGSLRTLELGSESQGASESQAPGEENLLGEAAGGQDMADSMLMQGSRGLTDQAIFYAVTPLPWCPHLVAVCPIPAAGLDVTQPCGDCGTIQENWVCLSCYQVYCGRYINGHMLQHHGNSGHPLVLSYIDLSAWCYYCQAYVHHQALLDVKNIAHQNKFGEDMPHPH

Histone deacetylase 1 = Histone deacetylase 1 (Homo sapiens, UniProt Q13547); assay: Inhibition of HDAC1
[5] = target: T3, Protein deacetylase HDAC6 (Homo sapiens, UniProt Q9UBN7); assay: Inhibition of HDAC6
T3 sequence (Q9UBN7 whole entry): T2 sequence (whole entry)

Tubulin = assay: Inhibition of tubulin deacetylation in human HCT116 cells; format: cell-based; conditions: hct-116
Histone deacetylase 3 [6] = target: T1, Histone deacetylase 3; assay: Inhibition of HDAC3 at 5 uM

Chain of Histone deacetylase 4 (Homo sapiens, UniProt P56524, H976Y) (P56524 whole entry H976Y): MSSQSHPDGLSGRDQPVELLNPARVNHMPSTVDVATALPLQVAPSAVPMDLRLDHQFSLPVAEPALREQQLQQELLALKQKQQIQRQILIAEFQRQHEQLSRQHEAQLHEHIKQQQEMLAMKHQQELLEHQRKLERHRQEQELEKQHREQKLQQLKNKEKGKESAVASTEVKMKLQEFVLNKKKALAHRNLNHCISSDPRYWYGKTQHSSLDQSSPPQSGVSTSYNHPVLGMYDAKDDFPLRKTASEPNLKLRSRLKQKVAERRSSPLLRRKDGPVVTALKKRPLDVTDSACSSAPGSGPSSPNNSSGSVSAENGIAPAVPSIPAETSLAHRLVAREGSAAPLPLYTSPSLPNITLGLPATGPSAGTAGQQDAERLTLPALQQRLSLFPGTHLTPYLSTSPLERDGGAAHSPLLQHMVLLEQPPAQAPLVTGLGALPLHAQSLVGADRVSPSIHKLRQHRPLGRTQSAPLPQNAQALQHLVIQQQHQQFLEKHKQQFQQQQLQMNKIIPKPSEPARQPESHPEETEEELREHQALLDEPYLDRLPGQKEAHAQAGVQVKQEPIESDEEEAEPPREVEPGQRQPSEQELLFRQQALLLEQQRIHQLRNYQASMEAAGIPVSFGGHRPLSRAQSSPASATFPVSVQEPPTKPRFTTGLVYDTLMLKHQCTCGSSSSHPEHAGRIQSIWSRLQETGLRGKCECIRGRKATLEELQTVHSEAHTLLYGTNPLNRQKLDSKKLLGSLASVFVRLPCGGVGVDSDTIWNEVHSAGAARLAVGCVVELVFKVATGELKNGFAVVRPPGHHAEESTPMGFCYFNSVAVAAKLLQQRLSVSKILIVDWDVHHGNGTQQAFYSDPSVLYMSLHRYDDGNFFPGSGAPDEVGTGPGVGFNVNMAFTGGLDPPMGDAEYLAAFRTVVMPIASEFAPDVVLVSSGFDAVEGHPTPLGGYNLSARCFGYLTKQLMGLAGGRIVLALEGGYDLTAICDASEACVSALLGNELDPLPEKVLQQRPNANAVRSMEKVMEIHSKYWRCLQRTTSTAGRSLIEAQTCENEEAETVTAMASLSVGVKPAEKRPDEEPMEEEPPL
Chain of Histone deacetylase 4 (Homo sapiens, UniProt P56524) (P56524 whole entry): as the sequence (P56524 whole entry H976Y) above, with Y976H counted along it
T1 sequence (O15379 whole entry): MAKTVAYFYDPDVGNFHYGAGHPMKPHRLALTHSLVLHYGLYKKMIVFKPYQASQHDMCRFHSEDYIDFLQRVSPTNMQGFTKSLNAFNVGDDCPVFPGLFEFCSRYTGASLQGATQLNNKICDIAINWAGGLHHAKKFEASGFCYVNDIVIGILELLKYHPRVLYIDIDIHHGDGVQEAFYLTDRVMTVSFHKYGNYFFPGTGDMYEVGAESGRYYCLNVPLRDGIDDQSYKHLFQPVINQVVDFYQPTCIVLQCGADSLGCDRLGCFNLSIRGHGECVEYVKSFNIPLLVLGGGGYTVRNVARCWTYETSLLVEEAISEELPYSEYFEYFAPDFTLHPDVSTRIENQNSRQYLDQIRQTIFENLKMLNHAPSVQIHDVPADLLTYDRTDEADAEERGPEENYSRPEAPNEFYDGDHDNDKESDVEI
Chain of Histone deacetylase 1 (Q13547 whole entry): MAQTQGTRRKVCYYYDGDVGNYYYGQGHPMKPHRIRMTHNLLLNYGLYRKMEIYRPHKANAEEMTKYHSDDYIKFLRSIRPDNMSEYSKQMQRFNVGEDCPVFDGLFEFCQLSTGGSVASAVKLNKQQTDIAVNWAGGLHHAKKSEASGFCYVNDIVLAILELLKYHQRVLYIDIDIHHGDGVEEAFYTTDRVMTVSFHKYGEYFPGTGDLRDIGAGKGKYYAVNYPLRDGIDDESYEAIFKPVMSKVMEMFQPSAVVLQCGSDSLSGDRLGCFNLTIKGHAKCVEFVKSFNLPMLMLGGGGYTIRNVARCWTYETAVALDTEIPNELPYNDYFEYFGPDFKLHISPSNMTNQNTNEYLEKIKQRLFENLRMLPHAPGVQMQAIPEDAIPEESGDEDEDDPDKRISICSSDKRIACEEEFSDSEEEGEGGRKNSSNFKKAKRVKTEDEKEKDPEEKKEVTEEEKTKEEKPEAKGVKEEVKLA

IC50 (Histone deacetylase 3 [1]) [nM] | IC50 (Histone deacetylase 4 [2]) [nM] | IC50 (Histone deacetylase 4 [3]) [nM] | inhibition [4] [%] | IC50 (Histone deacetylase 1) [nM] | IC50 [5] [nM] | IC50 (Tubulin) [nM] | inhibition (Histone deacetylase 3 [6]) [%] | SMILES
10 | 100 | 2700 | 94 | – | – | – | – | C[C@@H](NC(=O)c1ccc(C(=O)NO)s1)c1ccccc1
670 | 87 | 98 | – | 580 | 89 | 12000 | – | CN(Cc1ccc2nccnc2c1)C(=O)c1ccc(C(=O)C(F)(F)F)s1
– | 370 | 320 | – | 5500 | 310 | – | 44 | O=C(c1ccc(C(=O)C(F)(F)F)s1)N1CCn2c(-c3ccccc3)cnc2C1
